Source: ChEMBL document CHEMBL2074027, “Polyaromatic alkaloids from marine invertebrates as cytotoxic compounds and inhibitors of multidrug resistance caused by P-glycoprotein” (Br J Cancer, 1996)

Target: ATP-dependent translocase ABCB1 (Homo sapiens, UniProt P08183)
Assay: TP_TRANSPORTER: inhibition of Rhodamine 123 efflux (R123: 20 uM, Lamellarin I: 10 uM) in Lo Vo/Dx cells
Format: functional, cell-based

Chain of ATP-dependent translocase ABCB1 (P08183 whole entry): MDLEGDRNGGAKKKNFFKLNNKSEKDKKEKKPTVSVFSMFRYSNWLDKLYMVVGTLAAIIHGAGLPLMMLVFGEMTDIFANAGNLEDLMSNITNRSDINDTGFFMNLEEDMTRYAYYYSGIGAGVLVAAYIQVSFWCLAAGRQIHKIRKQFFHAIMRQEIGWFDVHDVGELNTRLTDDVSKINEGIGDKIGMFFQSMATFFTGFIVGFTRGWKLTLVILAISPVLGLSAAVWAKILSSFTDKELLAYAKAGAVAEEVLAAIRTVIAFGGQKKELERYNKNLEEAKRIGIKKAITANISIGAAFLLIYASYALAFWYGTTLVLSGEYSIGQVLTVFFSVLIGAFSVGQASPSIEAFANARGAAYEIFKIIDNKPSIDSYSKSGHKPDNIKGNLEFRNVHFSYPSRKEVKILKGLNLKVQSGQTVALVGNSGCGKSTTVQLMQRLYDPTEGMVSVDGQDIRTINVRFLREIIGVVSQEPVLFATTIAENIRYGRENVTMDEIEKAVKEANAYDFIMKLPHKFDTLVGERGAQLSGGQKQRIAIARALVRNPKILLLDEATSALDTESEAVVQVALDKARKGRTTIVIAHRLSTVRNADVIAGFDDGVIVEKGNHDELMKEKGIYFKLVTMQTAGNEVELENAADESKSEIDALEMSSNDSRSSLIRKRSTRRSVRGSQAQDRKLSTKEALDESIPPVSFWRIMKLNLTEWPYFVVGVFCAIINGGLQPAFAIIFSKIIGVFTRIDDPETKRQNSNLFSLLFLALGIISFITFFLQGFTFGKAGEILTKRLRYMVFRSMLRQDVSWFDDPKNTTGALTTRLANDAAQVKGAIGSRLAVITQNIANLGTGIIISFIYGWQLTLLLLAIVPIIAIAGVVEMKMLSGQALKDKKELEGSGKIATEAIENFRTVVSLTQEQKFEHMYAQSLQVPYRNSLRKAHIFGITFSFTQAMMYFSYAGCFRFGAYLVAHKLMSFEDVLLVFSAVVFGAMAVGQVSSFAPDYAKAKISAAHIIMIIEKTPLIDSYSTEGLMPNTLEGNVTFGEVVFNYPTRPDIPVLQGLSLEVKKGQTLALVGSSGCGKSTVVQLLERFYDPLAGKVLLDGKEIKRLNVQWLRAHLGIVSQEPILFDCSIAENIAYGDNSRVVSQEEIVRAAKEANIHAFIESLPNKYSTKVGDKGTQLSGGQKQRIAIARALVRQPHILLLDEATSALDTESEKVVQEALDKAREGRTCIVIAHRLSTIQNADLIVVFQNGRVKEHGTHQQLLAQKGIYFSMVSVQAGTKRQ

**Q.** How did the Activity turn out when `COc1cc2c(cc1O)OCc1c-2c(-c2ccc(OC)c(OC)c2)c2n1CCc1c-2cc(OC)c(OC)c1OC` [LAMELLARIN I] was run?
**A.** inhibitor [+]
